Reference: patent publication US20200268019A1, “USE OF ZINC AND COPPER GLUCONATE IN THE TREATMENT OF METHICILLIN-RESISTANT STAPHYLOCOCCUS AUREUS” (Distributors Processing, Inc., priority 2015, published 2020)

Columns and labels:
Salmonella = assay: Study 1: test for antigens against Salmonella in the blood of pigs; format: in vivo; conditions: for Relative risk: Salmonella, relative to control; for Pct. positives / Positives: Salmonella-positive blood samples; for Positives: of 126 (control) / 108 (study) samples
Protocol: A subset of the pigs in both study groups were tested for Salmonella prior to shipping out of the test and to the meat processing facility by testing for antigens against Salmonella in the blood. An inclusion rate of 60% was desired for both groups but was not reached for the study group.

[1] = Test of efficacy and safety: zinc source in dry feed of domesticated pigs, daily weight gain; conditions: for Average daily weight gain: 83 days
Text: In a confirmation experiment the safety of using powdered zinc gluconate as a conventional dietary supplement in the dietary mineral supply of domesticated pigs was examined in a controlled study.
3 groups of pigs, each comprising 11 individuals were identically fed save for the source of zinc as according to Table 1. Group 1, which was the control group, was fed […] 75% zinc oxide per ton dry feed according to normal feeding recommendations. Group 2 was fed zinc gluconate as a powder. Group 3 was fed zinc gluconate and further including 100 g Micro Aid® per ton feed. The amount of zinc fed to the animals of the three study groups was identical and corresponding to 23 g zinc per ton dry feed. Micro Aid® is dietary supplement known to enhance growth and reduce ammonia excretions in domesticated pigs. It is a registered trade mark of DPI Global, 17656 Avenue 168, Porterville, Calif. 93257. Micro Aid® has a recognized effect on the growth increase of pigs on the order of 4% per 100 g added Micro Aid® per ton feed.
The daily gain of weight for each individual was registered during the trial period and the trial was terminated after 83 days. For comparison the expected weight gain of adding Micro Aid® to a feed mixture comprising one of the two zinc sources has been calculated.

[2] = administered as pills; cited from earlier work
[3] = Study 1: randomized trial of 0.05% zinc gluconate in pellet feed, productivity and health of pigs; conditions: for combined disease and mortality withdrawal rate / pigs treated for diarrhea during the study period: 204 pigs per group, 12 weeks
Protocol: In a randomized trial the effect of the addition of 0.05% zinc gluconate to a standard pellet feed was tested for efficacy against Salmonella, health condition of the digestive system including stomach and intestines, and productivity in pigs, and compared to an otherwise identical diet without zinc gluconate. The control group received zinc in the form of zinc oxide to the same amount as the study group.
408 pigs from a single farm were randomly partitioned into two groups of 204 pigs each and fed with either a pelleted control feed or an otherwise identical pelleted feed comprising 0.05% zinc gluconate. In order maintain comparability of control group to study group and to diminish the influence of lung disease on the mortality of the control group, both groups were twice vaccinated with Porcilis against severe lung disease.
All pigs were followed for 12 weeks starting with their inclusion into the trial and ending with their transport to a meat processing plant. For all pigs in the study data on the feed uptake, growth, eventual diseases suffered during the study period were collected as well as including the complete slaughter records of the meat processing plant into the study. Pigs were included into the trial upon reaching an entry weight of on the average 33 kg. The pigs were weighed at inclusion into the trial, after 6 weeks, and after 12 weeks. […] The pigs in the study were allowed to eat and drink freely and the access to water and dietary was unrestricted.

[4] = Study 2: comparison of two farms, open wounds and footpad lesions in sows; format: in vivo
Protocol: (§1) A controlled comparison study between two groups of pigs at two farms in the province of Nordjylland, Denmark, was performed, each farm having about 600 sows in production and each farm feeding the sows in the production zinc according to veterinarian recommendations of 75 ppm zinc per FU. At farm 1, the sows received zinc in the form of zinc oxide whereas at farm 2, the sows received zinc in the form of zinc gluconate.

[5] = Study 3: birth weight of piglets and milk production of sows; format: in vivo
Protocol: as §1

[6] = pigs, 11 per group, 23 g zinc per ton dry feed
[7] = pigs having weights between 33-65 kg
[8] = pigs weighing between 65-105 kg

Compound: [O]=[Zn] [zinc oxide, reference compound]
- Relative risk (Salmonella): 1
- Pct. positives (Salmonella): 30.2%
- Positives (Salmonella): 38
- Average daily weight gain [1, 6]: 822 g/daily
- added zinc taken up by the digestive system [2]: 20%
- combined disease and mortality withdrawal rate [3]: 1.7%
- pigs treated for diarrhea during the study period [3]: about 15%
- feeding units (FU) to achieve 1 kg of growth ([3]; average, whole trial 33-105 kg): 2,85 FU/kg
- feeding units (FU) to achieve 1 kg of growth [3, 7]: 2,53 FU/kg
- feeding units (FU) to achieve 1 kg of growth [3, 8]: 3.13 FU/kg

Compound: zinc gluconate
- Relative risk (Salmonella): 0.56
- Pct. positives (Salmonella): 22.2%
- Positives (Salmonella): 24
- sows suffering from lesions on their footpads ([4]; sows of farm 2, 75 ppm zinc per FU): disappeared almost completely
- number of open wounds ([4]; sows, 75 ppm zinc per FU, within a month of the dietary change): rapid decrease in the number of open wounds
- Average daily weight gain ([1]; Group 3: zinc gluconate further including 100 g Micro Aid per ton feed): 910 g/daily
- Average daily weight gain [1, 6]: 875 g/daily
- signs of malnourishment or increased infection levels ([1]; regular inspection by a veterinarian): no signs of these conditions were observed
- milk production of the sows ([5]; farm 2 compared to farm 1 (zinc oxide)): increased compared to the sows of farm 1
- weight of piglets at birth ([5]; sows of farm 2): above average weight at birth
- combined disease and mortality withdrawal rate [3]: 1.7%
- pigs treated for diarrhea during the study period [3]: about 15%
- feeding units (FU) to achieve 1 kg of growth ([3]; average, whole trial 33-105 kg): 2.78 FU/kg
- feeding units (FU) to achieve 1 kg of growth [3, 7]: 2,51 FU/kg
- feeding units (FU) to achieve 1 kg of growth [3, 8]: 3.00 FU/kg
